# Test system: human A2780 ovarian carcinoma cells
# Test: Antiproliferative activity on A2780 cells (MTT-based assay)
# Format: cell-based
# Conditions: Homo sapiens, A2780, 96 h, four days of incubation, read-out: Cellular activity pIC50 (converted)
# Experimental: Cellular activity of the compounds of formula (I) was determined on A2780 tumour cells using a […] assay for cell toxicity or survival (Mosmann Tim, Journal of Immunological Methods 65: 55-63, 1983)(see example C.2).
# All compounds tested were dissolved in DMSO and further dilutions were made in culture medium. Final DMSO concentrations never exceeded 0.1% (v/v) in cell proliferation assays, Controls contained A2780 cells and DMSO without compound and blanks contained DMSO but no cells. MTT was dissolved at 5 mg/ml in PBS. A glycine buffer comprised of 0.1 M glycine and 0.1 M NaCl buffered to pH 10.5 with NaOH (1 N) was prepared (all reagents were from Merck).
# The human A2780 ovarian carcinoma cells (a kind gift from Dr. T. C. Hamilton [Fox Chase Cancer Centre, Pennsylvania, USA]) were cultured in RPMI 1640 medium supplemented with 2 mM L-glutamine, 50 μg/ml gentamicin and 10% fetal calf serum. Cells were routinely kept as monolayer cultures at 37° C. in a humidified 5% CO2 atmosphere. Cells were passaged once a week using a trypsin/EDTA solution at a split ratio of 1:40. All media and supplements were obtained from Life Technologies. Cells were free of mycoplasma contamination as determined using the Gen-Probe Mycoplasma Tissue Culture kit (supplier: BioMérieux).
# Cells were seeded in NUNC™ 96-well culture plates (Supplier: Life Technologies) and allowed to adhere to the plastic overnight. Densities used for plating were 1500 cells per well in a total volume of 200 μl medium. After cell adhesion to the plates, medium was changed and drugs and/or solvents were added to a final volume of 200 μl. Following four days of incubation, medium was replaced by 200 μl fresh medium and cell density and viability was assessed using an MTT-based assay. To each well, 25 μl MTT solution was added and the cells were further incubated for 2 hours at 37° C. The medium was then carefully aspirated and the blue MTT-formazan product was solubilized by addition of 25 μl glycine buffer followed by 100 μl of DMSO. […] Within an experiment, the results for each experimental condition are the mean of 3 replicate wells. For initial screening purposes, compounds were tested at a single fixed concentration of 10^−6 M. For active compounds, the experiments were repeated to establish full concentration-response curves. For each experiment, controls (containing no drug) and a blank incubation (containing no cells or drugs) were run in parallel. The blank value was subtracted from all control and sample values. For each sample, the mean value for cell growth (in absorbance units) was expressed as a percentage of the mean value for cell growth of the control. […] Herein the effects of test compounds are expressed as pIC50 (the negative log value of the IC50-value).
row,SMILES,IC50
1,O=C(NO)c1cnc(N2CCNC(CNS(=O)(=O)c3ccc4ccccc4c3)C2)nc1 (centres unmarked) [Compound 2],2.04 µM
2,O=C(NO)c1cnc(N2CCN(Cc3ccccc3)C(CNS(=O)(=O)c3ccc4ccccc4c3)C2)nc1 (centres unmarked) [Compound 3],2.4 µM
3,O=C(NO)c1cnc(N2CCOC(CNS(=O)(=O)c3ccc(-c4ccccc4)cc3)C2)nc1 (centres unmarked) [Compound 4],0.565 µM
4,O=C(NO)c1ccc(N2CCOC(CNS(=O)(=O)c3ccc(-c4ccccc4)cc3)C2)nc1 (centres unmarked) [Compound 5],2.05 µM
5,O=C(NO)c1cnc(N2CCOC(CNS(=O)(=O)c3ccc4ccccc4c3)C2)nc1 (centres unmarked) [Compound 6],0.413 µM
6,O=C(NO)c1ccc(N2CCOC(CNS(=O)(=O)c3ccc4ccccc4c3)C2)nc1 (centres unmarked) [Compound 7],2.04 µM
7,O=C(NO)c1cnc(N2CCOC(CNC(=O)c3ccc(-c4ccccc4)cc3)C2)nc1 (centres unmarked) [Compound 8],0.0365 µM
8,O=C(NO)c1cnc(N2CCOC(CNC(=O)c3ccc4ccccc4c3)C2)nc1 (centres unmarked) [Compound 9],> 10 µM
9,O=C(NO)c1cnc(N2CCCC(CNS(=O)(=O)c3ccc4ccccc4c3)C2)nc1 (centres unmarked) [Compound 10],1.08 µM
10,O=C(NO)c1cnc(N2CC[C@H](O)[C@H](CNS(=O)(=O)c3ccc4ccccc4c3)C2)nc1 [Compound 11],> 10 µM
11,O=C(NO)c1cnc(N2CCO[C@H](CNS(=O)(=O)c3ccc(-c4ccccc4)cc3)C2)nc1 [Compound 12],0.977 µM
12,CN1CCN(c2ncc(C(=O)NO)cn2)CC1CNS(=O)(=O)c1ccc2ccccc2c1 (centres unmarked) [Compound 13],1.69 µM
13,O=C(NO)c1cnc(N2CCCC(NS(=O)(=O)c3ccc4ccccc4c3)C2)nc1 (centres unmarked) [Compound 14],0.243 µM

# Same assay, conditions: four days of incubation
row,SMILES,Cellular activity pIC50
1,O=C(NO)c1cnc(N2CCO[C@H](CNS(=O)(=O)c3ccc(-c4ccccc4)cc3)C2)nc1 [Compound 1],6.232

# Test system: not given
# Test: not given
# Conditions: after 15 min incubation with microsomes (1 mg/ml), compound 5 μM, 37 degrees Celsius
row,SMILES,% metabolism
1,CCCO [propanol],25%

# Same assay, conditions: human, 15 min, 5 μM
row,SMILES,% metabolism
1,COc1cc(N)c(Cl)cc1C(=O)NC1CCN(CCCOc2ccc(F)cc2)CC1OC (centres unmarked) [Cisapride],45%

# Test system: not listed separately
# Test: Kinetic solubility in aqueous media (nephelometer turbidity)
# Format: physicochemical
# Conditions: aqueous buffer, kinetic from dmso stock; phosphate citrate buffer pH 7.4, dilution from 5 mM DMSO stock; read-out: Solubility Score
# Experimental: Kinetic solubility in aqueous media measures the ability of a compound to stay in aqueous solution upon dilution (see example C.3).
# DMSO-stock solutions are diluted with a single aqueous buffer solvent in 3 consecutive steps. For every dilution turbidity is measured with a nephelometer.
# In the first dilution step, 10 μl of a concentrated stock-solution of the active compound, solubilized in DMSO (5 mM), was added to 100 μl phosphate citrate buffer pH 7.4 and mixed. In the second dilution step, an aliquot (20 μl) of the first dilution step was further dispensed in 100 μl phosphate citrate buffer pH 7.4 and mixed. Finally, in the third dilution step, a sample (20 μl) of the second dilution step was further diluted in 100 μl phosphate citrate buffer pH 7.4 and mixed. All dilutions were performed in 96-well plates. Immediately after the last dilution step the turbidity of the three consecutive dilution steps were measured with a nephelometer. Dilution was done in triplicate for each compound to exclude occasional errors. Based on the turbidity measurements a ranking is performed into 3 classes. Compounds with high solubility obtained a score of 3 and for this compounds the first dilution is clear. Compounds with medium solubility obtained a score of 2. For these compounds the first dilution is unclear and the second dilution is clear. […] The solubility of 11 compounds was measured.
row,SMILES,solubility
1,O=C(NO)c1cnc(N2CCNC(CNS(=O)(=O)c3ccc4ccccc4c3)C2)nc1 (centres unmarked) [Compound 2],< 75.8 µM
2,O=C(NO)c1cnc(N2CCN(Cc3ccccc3)C(CNS(=O)(=O)c3ccc4ccccc4c3)C2)nc1 (centres unmarked) [Compound 3],< 75.8 µM
3,O=C(NO)c1cnc(N2CCOC(CNS(=O)(=O)c3ccc(-c4ccccc4)cc3)C2)nc1 (centres unmarked) [Compound 4],< 75.8 µM
4,O=C(NO)c1cnc(N2CCOC(CNS(=O)(=O)c3ccc4ccccc4c3)C2)nc1 (centres unmarked) [Compound 6],> 454 µM
5,O=C(NO)c1ccc(N2CCOC(CNS(=O)(=O)c3ccc4ccccc4c3)C2)nc1 (centres unmarked) [Compound 7],> 454 µM
6,O=C(NO)c1cnc(N2CCOC(CNC(=O)c3ccc(-c4ccccc4)cc3)C2)nc1 (centres unmarked) [Compound 8],> 454 µM
7,O=C(NO)c1cnc(N2CCOC(CNC(=O)c3ccc4ccccc4c3)C2)nc1 (centres unmarked) [Compound 9],> 454 µM
8,O=C(NO)c1cnc(N2CCCC(CNS(=O)(=O)c3ccc4ccccc4c3)C2)nc1 (centres unmarked) [Compound 10],> 454 µM
9,O=C(NO)c1cnc(N2CC[C@H](O)[C@H](CNS(=O)(=O)c3ccc4ccccc4c3)C2)nc1 [Compound 11],> 454 µM
10,O=C(NO)c1cnc(N2CCO[C@H](CNS(=O)(=O)c3ccc(-c4ccccc4)cc3)C2)nc1 [Compound 12],75.8 to 454 µM

# Target: histone deacetylase (HeLa nuclear extracts)
# Test: In vitro assay for inhibition of histone deacetylase (HeLa nuclear extracts, radiolabeled histone H4 peptide substrate)
# Format: biochemical
# Conditions: HeLa nuclear extracts 60 μg/ml, 30 min, pH 7.4
# Experimental: The in vitro assay for inhibition of histone deacetylase (see example C.1) measures the inhibition of HDAC enzymatic activity obtained with the compounds of formula (I).
# HeLa nuclear extracts (supplier: Biomol) were incubated at 60 μg/ml with 2×10^−8 M of radiolabeled peptide substrate. As a substrate for measuring HDAC activity a synthetic peptide, i.e. the amino acids 14-21 of histone H4, was used. The substrate is biotinylated at the NH2-terminal part with a 6-aminohexanoic acid spacer, and is protected at the COOH-terminal part by an amide group and specifically [^3H]-acetylated at lysine 16. The substrate, biotin-(6-aminohexanoic)Gly-Ala-([^3H]-acetyl-Lys-Arg-His-Arg-Lys-Val-NH2), was added in a buffer containing 25 mM Hepes, 1 M sucrose, 0.11 mg/ml BSA and 0.01% Triton X-100 at pH 7.4. After 30 min the deacetylation reaction was terminated by the addition of HCl and acetic acid. (final concentration 0.035 mM and 3.8 mM respectively). After stopping the reaction, the free ^3H-acetate was extracted with ethylacetate. After mixing and centrifugation, the radioactivity in an aliquot of the upper (organic) phase was counted in a β-counter.
# For each experiment, controls (containing HeLa nuclear extract and DMSO without compound), a blank incubation (containing DMSO but no HeLa nuclear extract or compound) and samples (containing compound dissolved in DMSO and HeLa nuclear extract) were run in parallel. In first instance, compounds were tested at a concentration of 10^−5M. […] In each test the blank value was subtracted from both the control and the sample values. The control sample represented 100% of substrate deactylation. For each sample the radioactivity was expressed as a percentage of the mean value of the controls. […] Herein the effects of test compounds are expressed as pIC50 (the negative log value of the IC50-value).
row,SMILES,Enzyme activity pIC50
1,O=C(NO)c1cnc(N2CCO[C@H](CNS(=O)(=O)c3ccc(-c4ccccc4)cc3)C2)nc1 [Compound 1],7.723
2,O=C(NO)c1cnc(N2CCNC(CNS(=O)(=O)c3ccc4ccccc4c3)C2)nc1 (centres unmarked) [Compound 2],8.059
3,O=C(NO)c1cnc(N2CCN(Cc3ccccc3)C(CNS(=O)(=O)c3ccc4ccccc4c3)C2)nc1 (centres unmarked) [Compound 3],7.647
4,O=C(NO)c1cnc(N2CCOC(CNS(=O)(=O)c3ccc(-c4ccccc4)cc3)C2)nc1 (centres unmarked) [Compound 4],8.097
5,O=C(NO)c1ccc(N2CCOC(CNS(=O)(=O)c3ccc(-c4ccccc4)cc3)C2)nc1 (centres unmarked) [Compound 5],7.549
6,O=C(NO)c1cnc(N2CCOC(CNS(=O)(=O)c3ccc4ccccc4c3)C2)nc1 (centres unmarked) [Compound 6],7.421
7,O=C(NO)c1ccc(N2CCOC(CNS(=O)(=O)c3ccc4ccccc4c3)C2)nc1 (centres unmarked) [Compound 7],7.323
8,O=C(NO)c1cnc(N2CCOC(CNC(=O)c3ccc(-c4ccccc4)cc3)C2)nc1 (centres unmarked) [Compound 8],7.487
9,O=C(NO)c1cnc(N2CCOC(CNC(=O)c3ccc4ccccc4c3)C2)nc1 (centres unmarked) [Compound 9],7.609
10,O=C(NO)c1cnc(N2CCCC(CNS(=O)(=O)c3ccc4ccccc4c3)C2)nc1 (centres unmarked) [Compound 10],7.65
11,O=C(NO)c1cnc(N2CC[C@H](O)[C@H](CNS(=O)(=O)c3ccc4ccccc4c3)C2)nc1 [Compound 11],7.553
12,O=C(NO)c1cnc(N2CCO[C@H](CNS(=O)(=O)c3ccc(-c4ccccc4)cc3)C2)nc1 [Compound 12],7.528
13,CN1CCN(c2ncc(C(=O)NO)cn2)CC1CNS(=O)(=O)c1ccc2ccccc2c1 (centres unmarked) [Compound 13],7.361

# Test system: not given
# Test: not given
# Conditions: not given
row,SMILES,melting point
1,O=C(NO)c1cnc(N2CCO[C@H](CNS(=O)(=O)c3ccc(-c4ccccc4)cc3)C2)nc1 [Compound 1],164 °C
2,O=C(NO)c1cnc(N2CCNC(CNS(=O)(=O)c3ccc4ccccc4c3)C2)nc1 (centres unmarked) [Compound 2],243 °C
3,O=C(NO)c1cnc(N2CCN(Cc3ccccc3)C(CNS(=O)(=O)c3ccc4ccccc4c3)C2)nc1 (centres unmarked) [Compound 3],135 °C
4,O=C(NO)c1cnc(N2CCOC(CNS(=O)(=O)c3ccc(-c4ccccc4)cc3)C2)nc1 (centres unmarked) [Compound 4],163 °C
5,O=C(NO)c1ccc(N2CCOC(CNS(=O)(=O)c3ccc(-c4ccccc4)cc3)C2)nc1 (centres unmarked) [Compound 5],210 °C
6,O=C(NO)c1cnc(N2CCOC(CNS(=O)(=O)c3ccc4ccccc4c3)C2)nc1 (centres unmarked) [Compound 6],179 °C
7,O=C(NO)c1ccc(N2CCOC(CNS(=O)(=O)c3ccc4ccccc4c3)C2)nc1 (centres unmarked) [Compound 7],157 °C
8,O=C(NO)c1cnc(N2CCOC(CNC(=O)c3ccc(-c4ccccc4)cc3)C2)nc1 (centres unmarked) [Compound 8],290 °C
9,O=C(NO)c1cnc(N2CCOC(CNC(=O)c3ccc4ccccc4c3)C2)nc1 (centres unmarked) [Compound 9],246 °C
10,O=C(NO)c1cnc(N2CCCC(CNS(=O)(=O)c3ccc4ccccc4c3)C2)nc1 (centres unmarked) [Compound 10],210 °C
11,O=C(NO)c1cnc(N2CC[C@H](O)[C@H](CNS(=O)(=O)c3ccc4ccccc4c3)C2)nc1 [Compound 11],176 °C

# Source: patent publication US8501737B2, “Piperazinyl-, piperidinyl- and morpholinyl-derivatives as novel inhibitors of histone deacetylase” (Janssen Pharmaceutica N.V., priority 2002, dated 2013)
